Measurements reported in patent US11098003B2, “Control and repellency of bed bugs” (BEDOUKIAN RESEARCH, INC., priority 2012, dated 2021).

Test system: bed bugs
Assay: Petri dish choice test, treated vs. untreated paper discs: repellency (avoidance) of bed bugs
Format: in vivo, Cimex species
Settings: 1 ml acetone solution on paper disc, distribution at 2 hours post-treatment, 5 replicates of 10 bed bugs
Experimental: Two semicircle discs of paper, one treated (1 ml of acetone solution of each compound was applied to each disc) and one untreated (1 ml of acetone only), were placed in the lid of a Petri dish. […] Five replicates of 10 bed bugs were released into the centers of the lids and were thus presented with a choice of treated vs. untreated substrate (or untreated vs. untreated in the control arenas). The distribution of the bed bugs was recorded at 2 hours post-treatment. Paired t-tests were conducted for each treatment to ascertain whether or not there was a statistically significant difference in the numbers of bed bugs on the treated vs. untreated discs.

Compound	Repellency/Avoidance (0.2% compound)	other results
CCN(CC)C(=O)c1cccc(C)c1 [DEET, N,N-Diethyl-m-toluamide, reference compound]	74%	Repellency/Avoidance (0.09% compound): 66%
CCCCCC1C(=O)CCC1CC(=O)O (stereo not shown) [Dihydrojasmonic Acid]	78%	–
CCCCCC1C(O)CCC1CC(=O)OC (stereo not shown) [Methyl dihydrojasmolate]	82%	Repellency/Avoidance (0.15% compound): 58%
CCCCCC1C(CC(=O)OC)CCC1(OC)OC (stereo not shown) [Methyl dihydrojasmonate dimethyl acetal]	90%	–
CC1CCC(C(C)(C)O)C(O)C1 (stereo not shown) [Para Menthane-3,8-diol (PMD), Para Menthane-3,8-diol, reference compound]	70%	Repellency/Avoidance (0.15% compound): 42%
CCCCCC1C(O)CCC1CC(=O)OCC=C(C)C (stereo not shown) [Prenyl dihydrojasmolate]	48%	–
CCCCCCCCCC1(C)CCC(=O)O1 (stereo not shown) [gamma Methyl tridecalactone]	72%	–
CCCCCCCCC1CCC(=O)O1 (stereo not shown) [gamma-Dodecalactone]	82%	–
CCCCCCCCCCCCCC1CCC(=O)O1 (stereo not shown) [gamma-Heptadecalactone]	–	Repellency/Avoidance (2% compound): 68%
CCCCCCCCCCCC1CCC(=O)O1 (stereo not shown) [gamma-Pentadecalactone]	–	Repellency/Avoidance (1% compound): 92%
CCCCCCCCCC1CCC(=O)O1 (stereo not shown) [gamma-Tridecalactone]	–	Repellency/Avoidance (0.5% compound): 86%; Repellency/Avoidance (1% compound): 96%
Dihydrojasmolactone	84%	–
Methyl apritol	88%	Repellency/Avoidance (0.15% compound): 74%
Methyl dihydrojasmonate amide	–	Repellency/Avoidance (concentration not given): 28%
